Data as given in patent US12427212B2, “Nectin-4 binding miniproteins, conjugates and uses thereof” (Aktis Oncology, Inc., priority 2023, dated 2025).
“Also recorded” adds a separate entry of the source. Where two headings read alike, the source gives them in different places. Bridges are numbered along the chain shown (N, C = ends). Primed or numbered codes have the meaning given here. The star is where a group is joined. DOTA = O=C(O)CN1CCN(CC(=O)O)CCN(CC(=O)*)CCN(CC(=O)O)CC1; PEG4 = NCCOCCOCCOCCOCCC(=O)O; PEG4′ = not defined here

Legend:
Nectin-4 [1] = biological target: T1, Nectin-4 (Homo sapiens, UniProt Q96NY8); assay: DELFIA competitive binding assay (Ki) against Eu-labeled C307 on HT-1376 cells; conditions: in the presence of europium-labeled C307
T1 sequence (Q96NY8 32-510): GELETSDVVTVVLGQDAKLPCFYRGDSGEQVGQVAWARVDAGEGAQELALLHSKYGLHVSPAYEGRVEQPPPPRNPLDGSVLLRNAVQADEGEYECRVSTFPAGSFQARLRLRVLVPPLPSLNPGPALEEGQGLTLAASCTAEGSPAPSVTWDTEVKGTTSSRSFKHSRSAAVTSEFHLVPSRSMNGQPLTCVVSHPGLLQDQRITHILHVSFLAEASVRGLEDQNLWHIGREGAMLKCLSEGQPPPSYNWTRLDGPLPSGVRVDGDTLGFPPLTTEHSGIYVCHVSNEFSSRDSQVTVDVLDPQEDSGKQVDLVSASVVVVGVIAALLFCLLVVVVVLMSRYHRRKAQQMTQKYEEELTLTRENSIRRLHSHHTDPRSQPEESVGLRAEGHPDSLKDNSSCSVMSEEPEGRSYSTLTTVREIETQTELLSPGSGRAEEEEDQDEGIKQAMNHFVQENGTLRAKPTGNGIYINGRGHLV
Description: A competition binding assay was utilized to determine the Ki for miniproteins bound to Nectin-4 expressed on the surface of cancer cells. […] Miniprotein incubations occurred for 90 min to reach binding equilibrium. […] After miniprotein incubations, the wells were washed to remove unbound ligand and treated according to manufacturer instructions for a DELFIA® (dissociation-enhanced lanthanide fluorescent immunoassay, Revvity Health Sciences). In brief, washed wells were incubated with 15 μL of 2 M HCl for 2 h at 37° C., after which 17 μL of 2 M NaOH and 30 μL of DELFIA® enhancement solution were added to each well and incubated for an additional 30 min. The remaining Eu reacted with the DELFIA® enhancer solution to generate fluorescence measured on the Envision instrument. Relative fluorescence units (RFUs) were measured as a function of test article concentration in order to calculate an IC50.
A whole cell binding assay was used to estimate the equilibrium binding affinity (KD) or binding inhibition constant (Ki) of miniprotein ligands to cells expressing a target of interest. Cells were dispensed into a 384-well plate and incubated at 37° C., in 5% CO2 overnight. The next day cells were gently washed once in assay buffer prior to addition of europium chelated ligand. […] For Ki determination, a single concentration (KD equivalent concentration) of europium-chelate miniprotein was added to each well followed immediately by the addition of unconjugated competing ligand over 12 different concentrations ranging from 100 times below and above expected Ki values as before. The plate was incubated for 1.5 h at room temperature to reach binding equilibrium. Cells were then washed three times at room temperature with 1×PBS followed by the addition of 2 M HCl and incubated for two h at 37° C. Following this step, 2 M NaOH and fluorescent inducer solution were added to each well and incubated for 30 minutes at room temperature according to the manufacturer's protocol (Perkin-ELMER DELFIA assay). Plates were read on an Envision plate reader and a curve-fitting model was applied to estimate KD and Ki values using GraphPad Prism software.
Engineered Nectin-4 miniproteins with further modified lysine residues (C298-C304; as described in Example 4B) were evaluated for their ability to bind to Nectin-4.

Nectin-4 [2] = biological target: T1, Nectin-4; assay: Flow cytometry binding to Nectin-4-expressing (HT-1376-P) and knockout (HT-1376-KO) cells; type: cell-based; conditions: biotinylated miniprotein
Description: Fluorescent imaging for Nectin-4 binding was conducted using assays as described in Example 3. Briefly. Nectin-4 knockout HT-1376 cells were generated via CRISPR/Cas9 mediated gene deletion followed by single cell cloning. […] Flow cytometry was performed to measure on-target binding to cell surface Nectin-4.

[3] = tested on: un-transfected HEK293 cells; assay: Background binding to un-transfected HEK293 cells (cell microarray suitability); type: cell-based, human; conditions: biotin-labeled molecules
Description: To evaluate potential off-target binding, six biotin-labeled molecules were tested in a cell microarray platform having 6,416 different human proteins spanning diverse functions and subcellular locations.

HT-1376 cells = assay: Internalization assay of indium-111 radiolabeled conjugate, HT-1376; type: cell-based, human; conditions: 37° C. or 4° C., 1 h
Description: (§1) Internalization was assessed for indium-111 radiolabeled C215 in HT-1376 and MCF7 cells. Cells were incubated in the presence of radioligand or radioligand plus 1000 times excess unlabeled compound (C215) at 37° C., or 4° C. for 1 h. At the end of incubation cells were washed four times with PBS and membrane bound radioligand was removed by three 0.5% trypsin washes. Cell suspensions were washed three times by method of centrifugation and removal of supernatant. Internalized radioactivity was measured by gamma counting cell pellets and cell number was determined by counting cells on an automatic cell counter. […] C215, in HT-1376 (FIG. 6A) and MCF7 cell lines (FIG. 6B).

MCF7 cells = assay: Internalization assay of indium-111 radiolabeled conjugate, MCF7; type: cell-based, human; conditions: 37° C. or 4° C., 1 h
Description: as §1

[4] = Thermal stability assay, 75° C., HPLC; type: physicochemical; conditions: 1 mg/mL, 0.9% saline solution
Description: The thermal stability of an exemplary compound, C215, was analyzed at a concentration of 1 mg/mL at 75° C., in 0.9% saline solution. A heating plate was set to 75° C. and the sample was heated for a period of one h. The vial was shaken prior to collecting 10 μL aliquots at 5, 10, 15, 30, and 60 minute time intervals. The % parent remaining was analyzed by HPLC using the following system and method: Analytical Agilent 1100 HPLC system using a 4.6×250 mm, 300 Angstrom. BEH300, 5 μm, Xbridge C18 column at 1.0 mL/min. The solvent system consisted of A=Water+0.1% TFA, B=Acetonitrile+0.1% TFA. The gradient consisted of 5% to 70% B over 15 minutes, then the column was washed and equilibrated to initial conditions.

[5] = tested on: HT-1376 urothelial cancer cells; assay: In vitro cell cytotoxicity assay of 225Ac-radioconjugates (CellTiter-Glo); type: cell-based, human; conditions: compound radiolabeled with 225Ac, 24 h treatment, 4-5 day regrowth, HT-1376 cells
Description: Cytotoxicity to ^225Ac-radioconjugates was assessed in HT-1376 urothelial cancer cells. Cells were seeded in 96-well plates at densities of 250 to 1000 cells per well two days prior to treatment. On the day of treatment ^225Ac-radioconjugates were diluted in culture medium to concentrations ranging from 0,0001 to 100 μCi/mL and treatment solutions were incubated with cells for 24 h. At the end of the treatment period, the treatment solution was removed, and fresh culture medium was replenished for the regrowth period of the assay that lasted 4-5 day's. At the end of the regrowth period the culture medium was removed and viability was assessed by CellTiter-Glo (Promega, Waltham MA) luminescent assay and the plates were read on a Perkin Elmer Enspire multimode plate reader. Data were normalized to treatment controls and plotted as non-linear sigmoidal dose response curves to determine the effective concentration for 50% reduction in cell viability.

[6] = previously published; cited from earlier work
Nectin-4 [7] = biological target: T1, Nectin-4; conditions: cited from earlier work
[8] = tested on: HT-1376-cells ("Parental", which express Nectin-4); assay: In vivo efficacy in cell-line derived xenograft (CDX) model, HT-1376 parental; design: species or system mouse; conditions: 3 mg/kg IV QWx3; versus vehicle
Description: In vivo efficacy study experiments were performed in tumor bearing athymic nude mice. […] Tumors were monitored for a minimum of 14 days prior to group stratification and study initiation dates.
Dose measurements for a sample injected dose were measured and confirmed on a gamma counter and corrected for decay. EV doses were calculated based on mouse weights and liquid concentration of prepared material. Indicated doses of vehicle, EV or radiolabeled C251 were prepared corresponding to the indicated administered dose levels per group. Doses were administered via tail vein injection while restrained and awake.
Animal monitoring: Tumor volume (caliper measurement) and body weight measurements for enrolled mice were performed twice a week for an initial planned monitoring period of 8 weeks. More frequent gross observations of mice were performed.
Hunan endpoints: Mice remained on study until they reached the end of the 8-week monitoring period or a number of pre-defined humane endpoints, including: • 1. An increase in tumor volume size that exceeds >1500 mm^3, or 20 mm in one dimension, or tumor becomes ulcerated or necrotic. • 2. A decrease in body weight ≥20% from maximum recorded weight. • 3. Any signs of pain or distress (i.e., consistent hunched posture, rough coat, squinted eyes, slowed gait). • 4. Tumors that compromise mobility or ability to eat or drink. • 5. BCS score ≤2. […]

[9] = tested on: HT-1376 urothelial cancer cells; assay: Radioligand binding of lutetium-177 radioconjugates, saturation and kinetic analysis; design: species or system human; conditions: lutetium-177 radioconjugates of PEG4-DOTA compounds, HT-1376 cells, global fit of association and dissociation
Description: Radioligand binding was performed in HT-1376 urothelial cancer cells by method of saturation. Cells were seeded at 20,000 cells per well in 96-well format 48 h prior to assay. Lutetium-177-labeled radioconjugates of C215 and C117 were incubated with cells at 4° C. for 1 h at various increasing concentrations of radioligand. At the end of incubation, cells were washed three times with PBS and radioactivity was quantified by gamma counting as shown in FIGS. 4A-5B.
Radioligand binding was performed in HT-1376 urothelial cancer cells by method of kinetic analysis. Cells were seeded at 20,000 cells per well in 96-well format 48 h prior to assay. On the day of assay, culture medium was removed and PBS was added to cells. Association kinetics were measured at three concentrations of radioligand, and this was performed by the addition of lutetium-177 radioconjugates to cells at various time points from 1 to 60 minutes.

[10] = In vivo biodistribution of 111In-labeled miniproteins by SPECT/CT, HT-1376 xenograft; design: species or system mouse; conditions: female, athymic nude, mouse, in vivo
How it was run: (§2)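 Uptake in % ID/g from maximum intensity projections of SPECT/CT scans, with SPECT in activity units and CT windowed −500 to 4500 HU. Animals carried HT-1376 tumors, a human Nectin-4-expressing line, and were dosed with 111In-labeled miniproteins.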

HT-1376 tumor xenograft = assay: as above; design: species or system mouse; conditions: 111In-labeled, tumor, +4 h, HT-1376 xenograft mice
How it was run: as §2

[11] = PhII trial, locally advanced or metastatic bladder cancer, 10.2 months median follow up

In the case of `CC[C@H](C)[C@@H]1NC(=O)[C@H](Cc2ccc(O)cc2)NC(=O)[C@H](CCC(N)=O)NC(=O)[C@@H]2CSSC[C@@H](C(=O)N[C@@H](CO)C(=O)O)NC(=O)CNC(=O)[C@H](CC(C)C)NC(=O)[C@H](CC(N)=O)NC(=O)[C@H](CC(=O)O)NC(=O)[C@H](CC(C)C)NC(=O)[C@H]([C@@H](C)CC)NC(=O)[C@H](CCC(=O)O)NC(=O)[C@H](CCC(=O)O)NC(=O)[C@H]([C@@H](C)CC)NC(=O)[C@H](CSSC[C@H](NC(=O)CCOCCOCCOCCOCCNC(=O)CCCC[C@@H]3SC[C@@H]4NC(=O)N[C@@H]43)C(=O)N[C@@H](CCC(=O)O)C(=O)N[C@@H](Cc3ccc(O)cc3)C(=O)N[C@@H](CC(=O)O)C(=O)N[C@@H](CCC(=O)O)C(=O)N[C@@H](CCC(=O)O)C(=O)N[C@@H](Cc3ccccc3)C(=O)N[C@@H](Cc3ccccc3)C(=O)N[C@@H]([C@@H](C)O)C(=O)N[C@@H](C)C(=O)N[C@@H](CC(C)C)C(=O)N[C@@H](C)C(=O)N[C@@H](CCCNC(=N)N)C(=O)N[C@@H](CC(C)C)C(=O)N[C@@H](CCCNC(=N)N)C(=O)NCC(=O)NCC(=O)N[C@@H](CC(=O)O)C(=O)N[C@@H]([C@@H](C)CC)C(=O)N2)NC(=O)[C@H](CC(C)C)NC(=O)[C@H](C)NC(=O)[C@@H]2CCCN2C(=O)[C@H](CC(C)C)NC(=O)[C@H](Cc2ccc(O)cc2)NC(=O)[C@H](CCC(N)=O)NC(=O)[C@H](Cc2ccccc2)NC(=O)[C@H](CCCC[N+](C)(C)C)NC(=O)[C@H](C)NC(=O)[C@H](CCC(N)=O)NC1=O` [Compound C253], the “binding to endogenous Nectin-4 expressed on HT-1376 cells (FIG. 21)” value (Nectin-4 [1]) is reported as “high binding affinity”, the “on-target binding to cell surface Nectin-4, HT-1376-P versus HT-1376-KO cells” value (Nectin-4 [2]) is reported as “potent and highly selective Nectin-4 targeting agent; also recorded: selective target binding” and the “Background binding to un-transfected HEK293 cells” value [3] is reported as “low-background binding”.
In the case of “C215 ({DOTA-PEG4′}-CEYDEEFFTALKRLRGGDICYYIKKKFKKVPKLCIEEILDKLGC-NH2; cysteine pairing not given here) [Compound C215]”, the internalization of radioconjugate (HT-1376 cells) is reported as “successfully internalized into cells”, the internalization of radioconjugate (MCF7 cells) is reported as “successfully internalized into cells” and the “thermal stability, % parent remaining” value [4] is reported as “remain stable over 60 min”. For the same molecule, the “EC50 (microcurie/milliliter) for 225Ac radioconjugates” value [5] was 0.086 microcurie/milliliter.
In the case of enfortumab vedotin, the “Plasma terminal half-life (min)” value [6] is given as 2,476.8 (1.72 days) min.
In the case of enfortumab vedotin [EV], the “overall tumor objective response rate (ORR)” value (Nectin-4 [7]; PhI study, patients previously treated with ICI therapy) is listed as 42%, the ORR (Nectin-4 [7]; PhI study, patients with particularly high tumor burden (liver metastases)) is listed as 36% and the ORR (Nectin-4 [7]; [11]) is listed as 44%. For the same molecule, the “complete response rate (CRR)” value (Nectin-4 [7]; [11]) was 12% and the Tumor volume [8] was “Some reduction in tumor volume”.
“{DOTA-PEG4}-CEYDEEFFTALKRLRGGDICYYIQAKFQYLPKLCIEEILDNLGCS-OH (disulfide 1-34, 20-44 (inferred)) [Compound C117]” showed a Kd [9] of 2.64 nM, a tissue uptake at 4 h [10] of 150 %ID/g and a tissue uptake at 24 h [10] of 93.3 %ID/g. For the same molecule, the “Data of Biodistribution (+4 h Tumor~% ID/g)” value (HT-1376 tumor xenograft) was 2.29 % ID/g and the “EC50 (microcurie/milliliter) for 225Ac radioconjugates” value [5] was 0.014 microcurie/milliliter.
